# Measured values published in ChEMBL document CHEMBL1201862, “PubChem BioAssay data set” (2004).
# Activity calls are given as the source filed them.
# Key:
# Steroidogenic factor 1 = Steroidogenic factor 1 (Homo sapiens, UniProt Q13285); test: Counterscreen for inverse agonists of the liver receptor homolog-1 (LRH-1; NR5A2): Luminescence-based cell-based high throughput dose response assay to identify inverse agonists of the Steroidogenic Factor 1 Nuclear Receptor (SF1; NR5A1).; format: functional
# [1] = target: Nuclear receptor subfamily 5 group A member 2 (Homo sapiens, UniProt O00482); format: functional, cell-based;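 further: HEK293T cells transfected with LRH-1 and a StAR promoter luciferase reporter; potency for inhibitors that lower LRH-1 driven reporter light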
# [2] = StAR promoter reporter inhibition counter-screen, dose response, counter-screen for LRH-1 inverse agonist project, cell-based, luminescence, luciferase reporter (AID 651969); format: functional
# Protein Tat = target: T1, Protein Tat (Human immunodeficiency virus type 1 group M subtype B (isolate HXB2)(HIV-1), UniProt P04608); format: functional;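 further: tat binding to TAR RNA read out by fluorescence polarization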
# T1 sequence (P04608 whole entry): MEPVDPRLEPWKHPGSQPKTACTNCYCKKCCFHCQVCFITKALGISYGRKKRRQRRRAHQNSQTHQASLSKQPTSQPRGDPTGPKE
# [3] = target: Heat shock protein HSP 90-alpha (Homo sapiens, UniProt P07900); format: functional, organism-based
# H9c2 = test: cells; format: functional, cell-based; details: Rattus norvegicus, H9c2, Myocardium;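 further: confirmatory concentration-response retest of ultra-high-throughput screening hits for modulation of myocardial damage; cell death induced by hydrogen peroxide oxidative stress; compound pretreatment for 60 min then peroxide exposure for 2 h; potency is for protecting the cells against peroxide damage rather than for killing them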
# Aminopeptidase N = target: T2, Aminopeptidase N (Plasmodium falciparum FcB1/Columbia, UniProt O96935); test: P. falciparum M1AAP inhibitors, biochemical, fluorogenic H-Leu-NHMec substrate, 1536-well (AID 1445); design: species or system Plasmodium falciparum 3D7, 3D7
# T2 sequence (O96935 whole entry): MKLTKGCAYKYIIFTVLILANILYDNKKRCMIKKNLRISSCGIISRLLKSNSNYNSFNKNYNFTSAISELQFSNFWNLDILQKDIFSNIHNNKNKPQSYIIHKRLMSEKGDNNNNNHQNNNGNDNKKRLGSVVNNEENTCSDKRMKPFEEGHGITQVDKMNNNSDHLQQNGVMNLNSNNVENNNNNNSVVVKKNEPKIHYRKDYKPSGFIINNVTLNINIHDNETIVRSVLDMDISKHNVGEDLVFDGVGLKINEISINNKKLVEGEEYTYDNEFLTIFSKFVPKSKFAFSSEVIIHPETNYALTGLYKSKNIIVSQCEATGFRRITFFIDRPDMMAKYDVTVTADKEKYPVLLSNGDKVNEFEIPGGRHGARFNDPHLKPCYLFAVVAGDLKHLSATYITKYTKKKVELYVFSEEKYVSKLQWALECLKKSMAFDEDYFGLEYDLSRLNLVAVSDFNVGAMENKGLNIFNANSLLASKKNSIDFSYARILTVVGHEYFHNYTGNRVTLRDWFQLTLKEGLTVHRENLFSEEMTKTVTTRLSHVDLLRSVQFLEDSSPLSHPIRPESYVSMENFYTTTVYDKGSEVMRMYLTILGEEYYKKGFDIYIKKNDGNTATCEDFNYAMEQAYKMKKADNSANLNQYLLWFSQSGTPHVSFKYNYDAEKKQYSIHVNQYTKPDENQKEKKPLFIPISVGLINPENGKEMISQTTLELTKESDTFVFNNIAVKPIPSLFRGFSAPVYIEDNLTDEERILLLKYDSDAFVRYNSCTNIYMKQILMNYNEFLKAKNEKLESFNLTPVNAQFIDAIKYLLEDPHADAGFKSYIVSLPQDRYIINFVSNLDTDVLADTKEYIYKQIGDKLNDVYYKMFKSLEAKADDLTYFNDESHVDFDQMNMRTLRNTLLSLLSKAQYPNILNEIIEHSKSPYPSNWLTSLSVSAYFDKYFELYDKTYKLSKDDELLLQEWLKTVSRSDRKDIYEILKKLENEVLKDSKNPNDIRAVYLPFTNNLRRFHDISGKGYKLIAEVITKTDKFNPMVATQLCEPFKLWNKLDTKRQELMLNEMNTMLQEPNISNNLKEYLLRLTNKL
# Vero = test: cells; format: functional; details: Chlorocebus sabaeus
# [4] = HepG2 cell cytotoxicity, dose response, cytotoxicity control for non-replicating M. tuberculosis project (AID 489018); format: functional; details: Mycobacterium tuberculosis
# [5] = THP-1 cell cytotoxicity, dose response, cytotoxicity control for non-replicating M. tuberculosis project (AID 489025); format: functional
# [6] = control 3'UTR Renilla luciferase suppression, dose response, counter-screen for Shn3 inhibitor project, cell-based, Clone20-Shn3RL, cherry-picked (AID 624133); format: functional
# [7] = Shn3 3'UTR reporter inhibitors, dose response, cell-based, Clone20 osteoblasts, firefly luciferase, cherry-picked (AID 624132); format: functional;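 further: firefly luciferase luminescence from reporter carrying the Shn3 3'UTR in osteoblasts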
# [8] = HepG2 cell cytotoxicity, dose response, cytotoxicity control for Shn3 inhibitor project, CellTiter-Glo, cherry-picked (AID 624134); format: functional, cell-based
# Chain of Nuclear receptor subfamily 5 group A member 2 (O00482 whole entry): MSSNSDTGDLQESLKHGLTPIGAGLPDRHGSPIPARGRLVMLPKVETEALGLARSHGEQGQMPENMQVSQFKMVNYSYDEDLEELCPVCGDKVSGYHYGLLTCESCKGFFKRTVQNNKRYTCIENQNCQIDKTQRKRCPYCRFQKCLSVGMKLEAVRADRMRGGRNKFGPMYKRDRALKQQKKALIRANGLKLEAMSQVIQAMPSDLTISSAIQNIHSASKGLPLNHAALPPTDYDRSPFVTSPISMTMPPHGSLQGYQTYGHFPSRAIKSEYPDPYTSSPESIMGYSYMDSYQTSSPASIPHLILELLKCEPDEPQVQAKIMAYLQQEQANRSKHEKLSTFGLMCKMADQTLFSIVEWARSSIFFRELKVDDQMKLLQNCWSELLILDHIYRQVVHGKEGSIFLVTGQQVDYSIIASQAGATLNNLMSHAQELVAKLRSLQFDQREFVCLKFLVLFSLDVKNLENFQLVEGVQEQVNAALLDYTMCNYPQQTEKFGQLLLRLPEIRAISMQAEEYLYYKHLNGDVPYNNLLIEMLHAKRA
# Chain of Steroidogenic factor 1 (Q13285 whole entry): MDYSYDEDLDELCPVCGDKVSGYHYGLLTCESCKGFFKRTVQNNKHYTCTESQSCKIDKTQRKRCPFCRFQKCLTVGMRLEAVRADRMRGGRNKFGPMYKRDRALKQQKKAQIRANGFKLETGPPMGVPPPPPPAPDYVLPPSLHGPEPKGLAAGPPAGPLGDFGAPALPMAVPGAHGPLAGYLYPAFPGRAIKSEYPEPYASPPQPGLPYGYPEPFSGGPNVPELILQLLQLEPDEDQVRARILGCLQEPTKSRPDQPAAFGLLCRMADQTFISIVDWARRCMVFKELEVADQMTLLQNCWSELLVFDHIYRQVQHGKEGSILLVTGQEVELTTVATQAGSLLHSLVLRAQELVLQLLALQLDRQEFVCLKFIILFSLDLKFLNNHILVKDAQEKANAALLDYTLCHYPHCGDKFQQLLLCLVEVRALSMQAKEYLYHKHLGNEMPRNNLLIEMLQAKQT
Structure (SMILES),IC50 (Steroidogenic factor 1),IC50 [1],IC50 [2],other results
Cc1cc(OCC(=O)N2CCC(O)CC2)c2c(C)cc(=O)oc2c1,11.2 µM (inactive),19 µM (inactive),35.9 µM (inactive),
Cc1cc(C)c2c(O)nc(SCC(=O)Nc3ccc(Br)cc3)nc2n1,33.4 µM (inactive),28.2 µM (inactive),35.9 µM (inactive),
CCOC(=O)c1nn(-c2ccc(Cl)cc2Cl)c(=N)c(C#N)c1C,,,,IC50 (Protein Tat): > 100 µM (active)
O=C(Nc1nc(-c2ccccn2)cs1)c1ccc(-c2ccccc2F)o1,,,,AC50 [3]: 6.54 µM (active); IC50 (H9c2): > 79 µM (inactive)
O=C(NN1C(=O)c2ccccc2NC1c1ccoc1)c1ccccc1 (centres undefined),,,,IC50 (Aminopeptidase N): 46.5 µM (active)
Cc1cc(C)c2nc(NC(=O)c3ccc([N+](=O)[O-])o3)sc2c1,0.148 µM (active),35.9 µM (inactive),35.9 µM (inactive),
CCN(CC(=O)NC(C)(C)C)C(=O)CCl,,,,CC50 (Vero): 22.2 µM (active)
Cc1ccccc1S(=O)(=O)Nc1ncnc2scc(-c3ccccc3)c12,,,,IC50 (Aminopeptidase N): 24.3 µM (active)
O=C(NCc1ccco1)c1nn(-c2ccccc2)c(=O)c2ccccc12,3.09 µM (active),35.9 µM (inactive),12 µM (inactive),
C=CCn1c(CNC(=O)c2ccccc2F)nnc1SCC(=O)NC(C)c1ccccc1 (centres undefined),,,,IC50 (Aminopeptidase N): 103 µM (active)
COc1ccc2cc(C(=O)NCc3ccccc3CN3CCCC3)ccc2c1,,,,CC50 [4]: > 20 µM (active); CC50 [5]: > 40 µM (active)
NS(=O)(=O)c1ccc(CCNCc2cc(Cl)ccc2OCc2ccccc2)cc1,,,,AC50 [6]: 7.31 µM (active); AC50 [7]: 4.46 µM (active); AC50 [8]: 46.9 µM (active)
